Molecular target: T1, MLXBIR3SG (Homo sapiens, UniProt Q96CA5, S150G)
T1 construct: His6 tag (MGSSHHHHHH, followed by linker with LVPRGS thrombin site) (N)
T1 sequence (Q96CA5 with tags, fused parts or gaps S150G): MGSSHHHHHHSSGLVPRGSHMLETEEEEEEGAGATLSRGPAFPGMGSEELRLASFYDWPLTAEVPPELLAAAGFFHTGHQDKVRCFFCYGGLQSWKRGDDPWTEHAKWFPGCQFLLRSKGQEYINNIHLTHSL
Assay: Fluorescence Polarization Peptide Binding Assay (competition with AVP-diPhe-FAM probe)
Settings: MLXBIR3SG at 30 nM, 5 nM AVP-diPhe-FAM probe, Ki determined from IC50 values, unit inferred
Protocol: In the following experiments was used a chimeric BIR domain referred to as MLXBIR3SG in which 11 of 110 residues correspond to those found in XIAP-BIR3, while the remainder correspond to ML-IAP-BIR. […] The improved caspase-9 inhibition of the chimeric BIR domain MLXBIR3SG has been correlated with increased inhibition of doxorubicin-induced apoptosis when transfected into MCF7 cells.
Polarization experiments were performed on an Analyst HT 96-384 (Molecular Devices Corp.) according to the procedure of Keating, S. M., Marsters, J, Beresini, M., Ladner, C., Zioncheck, K., Clark, K., Arellano, F., and Bodary., S. (2000) in Proceedings of SPIE: In Vitro Diagnostic Instrumentation (Cohn, G. E., Ed.) pp 128-137, Bellingham, Wash. Samples for fluorescence polarization affinity measurements were prepared by addition of 1:2 serial dilutions starting at a final concentration of 5 μM of MLXBIR3SG in polarization buffer (50 mM Tris [pH 7.2], 120 mM NaCl, 1% bovine globulins 5 mM DTT and 0.05% octylglucoside) to 5-carboxyflourescein-conjugated AVPdi-Phe-NH2 (AVP-diPhe-FAM) at 5 nM final concentration.
The reactions were read after an incubation time of 10 minutes at room temperature with standard cut-off filters for the fluorescein fluorophore (λex=485 nm; λem=530 nm) in 96-well black HE96 plates (Molecular Devices Corp.). Fluorescence values were plotted as a function of the protein concentration, and the IC50s were obtained by fitting the data to a 4-parameter equation using Kaleidograph software (Synergy software, Reading, Pa.). Competition experiments were performed by addition of the MLXBIR3SG at 30 nM to wells containing 5 nM of the AVP-diPhe-FAM probe as well as 1:3 serial dilutions of antagonist compounds starting at a concentration of 300 μM in the polarization buffer. Samples were read after a 10-minute incubation. Fluorescence polarization values were plotted as a function of the antagonist concentration, and the IC50 values were obtained by fitting the data to a 4-parameter equation using Kaleidograph software (Synergy software, Reading, Pa.). Inhibition constants (Ki) for the antagonists were determined from the IC50 values.

Structure (SMILES) | Ki [nM]
CN[C@@H](C)C(=O)N[C@H](C(=O)N1CCC[C@H]1c1nc2c(-c3ccccc3)ncnc2s1)C1CCN(C(=O)COC)CC1 [compound 56] | 33.8
C[C@H](NCCO)C(=O)N[C@H](C(=O)N1CCC[C@H]1c1nc2c(-c3ccccc3)ccnc2s1)C1CCCCC1 [compound 60] | 145
C[C@@H](NCCO)C(=O)N[C@H](C(=O)N1CCC[C@H]1c1nc2c(-c3ccccc3)nccc2s1)C1CCCCC1 [compound 48] | 7870
C[C@H](NCCO)C(=O)N[C@H](C(=O)N1CCC[C@H]1c1nc2c(-c3ccccc3)nccc2s1)c1ccccc1 [compound 54] | 55.6

Reference: patent US8247557B2, “IAP inhibitors” (Genentech, Inc., priority 2005, dated 2012)
